# Measurements reported in patent US7176195B2, “Fused azepine derivatives and their use as antidiuretic agents” (Ferring BV, priority 2000, dated 2007).
# Biological target: V2 receptor (Homo sapiens, UniProt P30518)
# Test: Determination of V2 receptor agonist activity in vitro (cellular activation)
# Type: cell-based
# Conditions: concentration of compound necessary to cause a half-maximal cellular activation
# Experimental: Determination of V2r Ceptor Agonist Activity in Vitro
# Agonist activity was determined for all compounds and is reported as an EC50 value, being that concentration of compound necessary to cause a half-maximal cellular activation.
# V2 receptor, sequence (P30518 whole entry): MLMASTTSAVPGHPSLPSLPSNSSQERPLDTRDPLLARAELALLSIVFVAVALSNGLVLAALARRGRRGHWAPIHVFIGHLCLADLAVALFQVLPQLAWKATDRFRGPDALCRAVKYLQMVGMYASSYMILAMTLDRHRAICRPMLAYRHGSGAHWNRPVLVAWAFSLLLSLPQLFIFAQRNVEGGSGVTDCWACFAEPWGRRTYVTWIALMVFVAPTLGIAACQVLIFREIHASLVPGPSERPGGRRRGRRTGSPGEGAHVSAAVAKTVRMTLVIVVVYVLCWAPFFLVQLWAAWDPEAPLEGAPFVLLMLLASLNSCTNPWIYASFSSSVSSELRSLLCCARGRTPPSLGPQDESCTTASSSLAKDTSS
row,Compound,EC50
1,"Cc1cc(C(=O)N2CCC[S+]([O-])c3ccccc32)ccc1CNC(=O)Nc1c(F)cccc1F (stereo not shown) [Example 25, 5-(4-[3-(2,6-Difluorophenyl)ureidomethyl]-3-methylbenzoyl)-1-oxo-1λ^4-2,3,4,5-tetrahydro-1,5-benzothiazepine]",0.28 µM
2,"O=C(NCc1ccc(C(=O)N2CCCCc3ccccc32)cc1Cl)Nc1ccccc1Cl [Example 5, 1-(3-Chloro-4-[3-(2-chloropheny)ureidomethyl]benzoyl)-2,3,4,5-tetrahydro-1H-1-benzazepine]",0.15 µM
3,"N#C/N=C(\NCc1ccc(C(=O)N2CCCCc3ccccc32)cc1)Nc1c(F)cccc1F [Example 2, 1-(4-[3-(2,6-Difluorophenyl)cyanoguanidinomethyl]benzoyl)-2,3,4,5-tetrahydro-1H-1-benzazepine]",0.16 µM
4,"CCN1CCCN(C(=O)c2ccc(CNC(=O)Nc3c(F)cccc3F)c(C)c2)c2ccccc21 [Example 23, 1-(4-[3-(2,6-Difluorophenyl)ureidomethyl]-3-methylbenzoyl)-5-ethyl-2,3,4,5-tetrahydro-1H-1,5-benzodiazepine]",0.04 µM
5,"Cc1cc(CNC(=O)Nc2c(F)cccc2F)ccc1C(=O)N1CCCN(C)c2ccccc21 [Example 19, 1-(4-[3-(2,6-Difluorophenyl)uredomethyl]-2-methylbenzoyl)-5-methyl-2,3,4,5-tetrahydro-1H-1,5-benzodiazepine]",0.04 µM
6,"Cc1cc(C(=O)N2CCCCc3ccccc32)ccc1CNC(=O)NS(=O)(=O)c1ccccc1 [Example 8, 1-(3-Methyl-4-[3-(phenylsulfonyl)ureidomethyl]benzoyl)-2,3,4,5-tetrahydro-1H-1-benzazepine]",0.22 µM
7,"Cc1cc(C(=O)N2CCCNc3ccccc32)ccc1CNC(=O)Nc1c(F)cccc1F [Example 15, 1-(4-[3-(2,6-Difluorophenyl)ureidomethyl]-3-methylbenzoyl)-2,3,4,5-tetrahydro-1H-1,5-bezazepine]",0.044 µM
8,Cc1cc(C(=O)N2CCCCc3ccccc32)cc(C)c1CNC(=O)Nc1c(F)cccc1F [Example 20],0.017 µM
9,"O=C(NCc1ccc(C(=O)N2CCCCc3ccccc32)cc1)Nc1c(F)cccc1F [Example 1, 1-(4-[3-(2,6-Difluorophenyl)ureidomethyl]benzoyl)-2,3,4,5-tetrahydro-1H-1-benzazepine]",0.039 µM
10,"CN1CCCN(C(=O)c2ccc(CNC(=O)Nc3c(F)cccc3F)c(Cl)c2)c2ccccc21 [Example 18, 1-(3-Chloro-4-[3-(2,6-difluorophenyl)ureidomethyl]benzoyl)-5-methyl-2,3,4,5-tetrahydro-1H-1,5-benzodiazepine]",0.017 µM
11,"Cc1cc(C(=O)N2CCCCc3ccccc32)ccc1CNC(=O)Nc1ccc[nH]c1=O [Example 9, 1-(3-Methyl-4-[3-(2-oxo-1,2-dihydropyrid-3-yl)ureidomethyl]benzoyl)-2,3,4,5-tetrahydro-1H-1-benzazepine]",0.05 µM
12,"O=C(NCc1ccc(C(=O)N2CCCCc3ccccc32)cn1)Nc1c(F)cccc1F [Example 3, 1-(6-[3-(2,6-Difluorophenyl)ureidomethyl]nicotinoyl)-2,3,4,5-tetrahydro-1H-1-benzazepine]",0.3 µM
13,"O=C(c1ccc(CNS(=O)(=O)Cc2ccccc2[N+](=O)[O-])c([N+](=O)[O-])c1)N1CCCCc2ccccc21 [Example 11, 1-(3-Nitro-4-[2-nitrobenyzlsulfonylaminomethyl]benzoyl)-2,3,4,5-tetrahydro-1H-1-benzazepine]",0.021 µM
14,"CN(C)c1cc(C(=O)N2CCCCc3ccccc32)ccc1CNC(=O)Nc1c(F)cccc1F [Example 13, 1-(4-[3-(2,6-Difluorophenyl)ureldomethyl]-3-dimethylaminobenzoyl)-2,3,4,5-tetrahydro-1H-1-benzazepine]",0.038 µM
15,"Cc1cc(C(=O)N2CCCCc3sccc32)ccc1CNC(=O)Nc1c(F)cccc1F [Example 26, 4-(4-[3-(2,6-Difluorophenyl)ureidomethyl]-3-methylbenzoyl)-5,6,7,8-tetrahydro-4H-thieno[3,2-b]azepine]",0.01 µM
16,"COc1cccc(NC(=O)NCc2ccc(C(=O)N3CCCCc4ccccc43)cc2Cl)c1 [Example 4, 1-(3-Chloro-4-[3-(3-methoxyphenyl)ureidomethyl]benzoyl)-2,3,4,5-tetrahydro-1H-1-benzazepine]",0.3 µM
17,"Cc1cc(C(=O)N2CCCN(CCO)c3ccccc32)ccc1CNC(=O)Nc1c(F)cccc1F [Example 17, 1-(4-[3-(2,6Difuorophenyl)ureidomethyl]-3-methylbenzoyl)-5-(2-hydroxyethyl)-2,3,4,5-tetrahydro-1H-1,5-benzodiazepine]",0.016 µM
18,Cc1cc(C(=O)N2CCCCc3cccnc32)ccc1CNC(=O)Nc1c(F)cccc1F [Example 24],0.092 µM
19,"O=C(NCc1ccc(C(=O)N2CCCCc3ccccc32)c(Cl)n1)Nc1c(F)cccc1F [Example 21, 1-(2-Chloro-6-[3-(2,6-difluorophenyl)ureidomethyl]nicotinoyl)-2,3,4,5-tetrahydro-1H-1-benzazepine]",0.18 µM
20,"O=C(c1ccc(CNC(=S)Nc2c(F)cccc2F)c(Cl)c1)N1CCCCc2ccccc21 [Example 6, 1-(3-Chloro-4-[3-(2,6-difluorophenyl)thioureidomethyl]benzoyl)-2,3,4,5-tetrahydro-1H-1-benzazepine]",0.047 µM
21,"Cc1cc(C(=O)N2CCCN(Cc3cccnc3)c3ccccc32)ccc1CNC(=O)Nc1c(F)cccc1F [Example 16, 1-(4-[3-(2,6-Difluorophenyl)ureidomethyl]-3-methylbenzoyl)-5-(3-pyridyl)methyl-2,3,4,5-tetrahydro-1H-1,5-benzodiazepine]",0.016 µM
22,Cc1cc(C(=O)N2CCCCc3ccccc32)ccc1CNC(=O)Nc1c(F)cccc1F [Example 10],0.004 µM
23,"Cc1cc(CNC(=O)Nc2c(F)cccc2F)ccc1C(=O)N1CCCCc2ccccc21 [Example 7, 1-(4-[3-(2,6-Difluorophenyl)ureidomethyl]-2-methylbenzoyl)-2,3,4,5-tetrahydro-1H-1-benzazepine]",0.024 µM
24,"O=C(NCc1ccc(C(=O)N2CCCCc3ccccc32)c(F)c1)Nc1c(F)cccc1F [Example 14, 1-(4-[3-(2,6-Difluorophenyl)ureidomethyl]-2-fluorobenzoyl)-2,3,4,5-tetrahydro-1H-1-benzazepine]",0.24 µM
25,"Cn1c(CNC(=O)Nc2c(F)cccc2F)ccc(C(=O)N2CCCCc3ccccc32)c1=O [Example 22, 1-(6-[3-(2,6-Difluorophenyl)ureidomethyl]-1-methyl-2-oxo-1,2-dihydropyridyl-3-carbonyl)-2,3,4,5-tetrahydro-1H-1-benzazepine]",1 µM
26,"Nc1cc(C(=O)N2CCCCc3ccccc32)ccc1CNC(=O)Nc1c(F)cccc1F [Example 12, 1-(3-Amino-4-[3-(2,6 difluorophenyl)ureidomethyl]benzoyl)-2,3,4,5-tetrahydro-1H-1-benzazepine]",0.05 µM
27,"Cc1cc(C(=O)N2CCCCc3sccc32)ccc1CNC(=O)Nc1c(F)c(F)cc(F)c1F [Example 27, 4-(3-Methyl-4-[3-(2,3,5,6-tetrafluorophenyl)ureidomethyl]benzoyl)-5,6,7,8-tetrahydro-4H-thieno[3,2-b]azepine]",0.023 µM

# System: Brattleboro rat
# Test: Determination of antidiuretic activity in vivo (urine output, Brattleboro rat)
# Conditions: Brattleboro rats, 1 mg/kg p.o. in methylcellulose, vs control animals
# Experimental: Determination of Antidiuretic Activity in Vivo
# The Brattleboro rat is a recognised model for vasopressin deficiency (for a review see FD Grant, “Genetic models of vasopressin deficiency”, Exp. Physiol. 85, 203S–209S, 2000). […] Compounds of the invention were administered to Brattleboro rats (0.1–10 mg/kg p.o. in methylcellulose. Urine was callected hourly and volumes were compared with control animals. Animals had free access to food and water throughout the experiment. Representative results are given in Table S. Results for Desmopressin are given for comparison.
row,Compound,% inhibition of urine output (at 1 hour)
1,"Cc1cc(C(=O)N2CCCCc3ccccc32)ccc1CNC(=O)NCC(=O)O [Example 33, 1-(4-[N-(Carboxymethylcarbamoyl)aminomethyl]-3-methylbenzoyl)-2,3,4,5-tetrahydro-1H-1-benzazepine]",38%
2,"Cc1cc(C(=O)N2CCCCc3ccccc32)ccc1CNC(=O)NCC(=O)N(C)C [Example 35, 1-(4-[N-(2-Dimethylamino-2-oxoethylcarbamoyl)aminomethyl]-3-methylbenzoyl)-2,3,4,5-tetrahydro-1H-1-benzazepine]",45–82%
3,"Cc1cc(C(=O)N2CCCCc3ccccc32)ccc1CNC(=O)N1CCC[C@H]1C(=O)N(C)C [Example 39, 1-(2-Methyl-4-(2,3,4,5-tetrahydro-1-benzazepin-1-ylcarbonyl)benzylcarbamoyl)-L-proline-N,N-dimethylamide]",82%
4,"CCOC(=O)CNC(=O)NCc1ccc(C(=O)N2CCCCc3ccccc32)cc1C [Example 32, 1-(4-[N-(2-Ethoxy-2-oxoethylcarbamoyl)aminomethyl]-3-methylbenzoyl)-2,3,4,5-tetrahydro-1H-1-benzazepine]",74%
